Format in all cases: cell-based
For experiment [1], the system named is human neutrophils. Description: Calcium ion flux in neutrophils (Fluo-3-AM). Conditions: PSM-mec vs PSMα3; range similar to other α-type PSMs, in general higher than β-type PSMs (FIG. 21B). On the procedure:
(§1) Neutrophils were subjected to a brief hypotonic shock with pyrogen-free water (Sigma), washed, and suspended at 5×10^6 cells/ml in HBSS containing 0.05% human serum albumin (HSA; CLB). Chemotaxis of neutrophils was determined by using fluorescently-labeled neutrophils that migrated through a membrane fitted into an insert of a 24-well microtiter plate transwell system (Costar) containing a prewetted 3-μm-pore-size polycarbonate filter as described (de Haas et al., J Exp Med 199, 687-95, 2004). For measurement of calcium ion fluxes, 5×10^6 neutrophils/ml were loaded with 2 μM Fluo-3-AM (Molecular Probes) in RPMI containing 0.05% HSA (RPMI-HSA) for 20 minutes at room temperature under agitation, washed twice with buffer, and resuspended in RPMI-HSA at 10^6 cells/ml. Calcium fluxes were analyzed with a FACScalibur (Becton Dickinson).
(§2) Neutrophils were subjected to a brief hypotonic shock with pyrogen-free water (Sigma), washed, and suspended at 5×10^6 cells/ml in HBSS containing 0.05% human serum albumin (HAS; CLB). Chemotaxis of neutrophils was determined by using fluorescently-labeled neutrophils that migrated through a membrane fitted into an insert of a 24-well microtiter plate transwell system (Costar) containing a prewetted 3-μm-pore-size polycarbonate filter. […] Calcium fluxes were analyzed with a FACScalibur (Becton Dickinson). […]

Experiment [2] relates to human neutrophils. In words: Interaction of synthetic PSMs with human neutrophils (overall pro-inflammatory activity). Conditions: synthetic PSM peptides, comparison among PSMs. On the procedure:
Neutrophils were subjected to a brief hypotonic shock with pyrogen-free water (Sigma), washed, and suspended at 5×10^6 cells/ml in HBSS containing 0.05% human serum albumin (HSA; CLB). Chemotaxis of neutrophils was determined by using fluorescently-labeled neutrophils that migrated through a membrane fitted into an insert of a 24-well microtiter plate transwell system (Costar) containing a prewetted 3-μm-pore-size polycarbonate filter as described (de Haas et al., J Exp Med 199, 687-95, 2004). […] Calcium fluxes were analyzed with a FACScalibur (Becton Dickinson).
Priming of PMNs by synthetic PSMs was determined by increased surface expression of CD11b and gp91phox (granule exocytosis). […] PMNs were analyzed on a FACSCalibur flow cytometer (Becton Dickinson) and dead cells were excluded with a single gate. Percent positive neutrophils were determined with a marker defined by the boundary of the isotype-matched control antibody.
After isolation and washing, PMN or PBMC were resuspended in RPMI 1640 medium (Sigma) supplemented with 10% human serum, 2 mM L-glutamine, 100 U/ml penicillin, 100 μg/ml streptomycin, 2 mM sodium pyruvate, and 10 mM HEPES. […] After removal of supernatant, cells were resuspended in fresh culture medium, counted, and distributed into a 96-well cell culture plate at 100 μl and 2.5×10^5 cells per well. […]

The test system of experiment [3] is human neutrophils. In words: Lysis of human neutrophils (release of lactate dehydrogenase). Conditions: synthetic PSM peptides at 10 μg/ml, LDH release (FIG. 4A). The protocol:
(§3) Lysis of PMNs by synthetic PSMs or clarified S. aureus culture media was determined essentially as described (Voyich et al., J Infect Dis 194, 1761-70, 2006; Voyich et al., J Immunol 175, 3907-19, 2005). Synthetic PSMs (1 or 10 μg/ml) were added to wells of a 96-well tissue culture plate containing 10^6 PMNs and plates were incubated at 37° C. for up to 3 hours. At the desired times, PMN lysis was determined by release of lactate dehydrogenase (LDH; Cytotoxicity Detection Kit, Roche Applied Sciences). Alternatively, wild-type and isogenic mutant S. aureus strains were cultured for 18 hours at 37° C. in 50 ml TSB with shaking using a 100 ml flask. Bacteria were removed by centrifugation and culture media were sterilized by filtration and stored at −80° C. in aliquots until used. Culture medium was diluted 1:10 in RPMI/H, mixed with human PMNs (10^6) and tested for its ability to cause PMN lysis.
as §3, with “above in Example 2.” for “(Voyich et al., J Infect Dis 194, 1761-70, 2006; Voyich et al., J Immunol 175, 3907-19, 2005).”
Human neutrophil assays: Human neutrophil isolation, chemotaxis, calcium ion flux, priming, lysis assays, and measurement of IL-8 production were performed as described in Example 2.

Experiment [4] deals with human neutrophils. Description: Neutrophil chemotaxis (transwell). Conditions: PSM-mec vs PSMα3; range similar to other α-type PSMs, in general higher than β-type PSMs (FIG. 21A). The protocol:
as §1, §2

Consider fMEFVAKLFKFFKDLLGKFLGNN [PSMα3], for which the calcium flux result in experiment [1] is “most potent”. Besides, the pro-inflammatory activity entry in experiment [2] was “most pronounced pro-inflammatory activity”. The “lysis of human neutrophils in vitro” value in experiment [3] is reported as “significant lysis”. In addition, the chemotactic activities result in experiment [4] is listed as “most potent”.

(Values after patent US8211445B2, “PSM peptides as vaccine targets against methicillin-resistant Staphylococcus” (The United States of America, as represented by the …, priority 2007, dated 2012).)
